This note sets out measurements from patent US9657057B2, “Dipeptide and tripeptide epoxy ketone protease inhibitors” (Onyx Therapeutics, Inc., priority 2013, dated 2017).

≈ marks a conversion by molar mass, not a printed value. Where “and” joins values, the source holds several entries; their conditions need not be identical. Identical values can stand only once.

The target in data set [1] is i20S (20S immunoproteasome) (Homo sapiens, UniProt P20618+P28062). The data set can be described thus: 20S proteasome assay, chymotrypsin-like activity (LLVY), i20S. It is filed as biochemical. As to conditions: LLVY i20S Hu 1 h CONT: IC50 (nM), succinyl-Leu-Leu-Val-Tyr-AMC. From the text:
(§1) Assay buffer consisted of TE buffer [20 mmol/L Tris (pH 8.0), 0.5 mmol/L EDTA] with (20S) or without (cell lysate) 0.03% SDS. Reactions were initiated by enzyme or lysate addition and monitored for AMC product formation at 27jC with a plate-based spectofluorometer (Tecan).

The target of data set [2] is c20S (constitutive 20S proteasome) (Homo sapiens, UniProt P20618+P28074). Put plainly: 20S proteasome assay, chymotrypsin-like activity (LLVY), c20S. The settings on record: LLVY c20S Hu 1 h CONT: IC50 (nM), succinyl-Leu-Leu-Val-Tyr-AMC. It is filed as biochemical.
Text: as §1

A short description of another data set: Solubility pH 7. The format is physicochemical. The settings on record: pH 7, aqueous buffer.
The next data set deals with T1, β5 (Homo sapiens, UniProt P20618+P28074).
T1 construct: endogenous in cells; host or cells: MOLT-4
Put plainly: ProCISE proteasome subunit assay, β5. It is filed as biochemical. As to conditions: MOLT4 lysate Hu 1 h. As to the method:
(§2) This assay was used to assess the inhibitory activity against each of LMP2, LMP7, MECL1, β1, β2, and β5. Briefly, test compounds were serially diluted in DMSO at 100× concentration, then diluted to 10× in aqueous hypotonic lysis buffer. Lysate from the human acute lymphoblastic leukemia cell line, MOLT-4, was treated for 1 hour at 25° C. with compound at a final 1× concentration. […] Following this, lysate was denatured in guanidine hydrochloride, and subunits bound to probe were isolated with streptavidin-conjugated sepharose beads. Individual subunits were probed with subunit-specific primary antibodies, followed by HRP-conjugated secondary antibodies. A chemiluminescent substrate was used to generate signal associated with HRP binding, which was detected on a plate reader. Luminescent signal was normalized to protein content, then, percent activity calculated relative to DMSO-treated controls to generate IC50 curves.

Another data set has as its target T2, LMP7 (Homo sapiens, UniProt P20618+P28062).
T2 construct: endogenous in cells; host or cells: MOLT-4
Put plainly: ProCISE proteasome subunit assay, LMP7. The format is biochemical. As to conditions: MOLT4 lysate Hu 1 h. As to the method:
as §2

For orientation: IC50 means the concentration needed to halve the response being measured. Higher therefore signals weaker potency. Usually solubility stands for the dissolved amount per volume that the medium holds. The low end stands for a poorly soluble substance, the high end for a readily soluble substance. As to `COc1ccc(C[C@H](NC(=O)[C@H](C)NC(=O)CO)C(=O)N[C@@H](Cc2ccccc2)C(=O)[C@@]2(C)CO2)cc1` [Compound C-2008], the IC50 came to 558 nM in data set [1] and 1590 nM in data set [2]. In the data set “Solubility pH 7”, this molecule had a solubility of 2330 µg/mL (≈ 4560 µM).
Turning to `COC(=O)N[C@H](C)C(=O)N[C@@H](Cc1ccc(OC)cc1)C(=O)N[C@@H](Cc1ccccc1)C(=O)[C@@]1(C)CO1` [Compound C-2010, Methyl ((R)-1-(((S)-3-(4-methoxyphenyl)-1-(((S)-1-((R)-2-methyloxiran-2-yl)-1-oxo-3-phenylpropan-2-yl)amino)-1-oxopropan-2-yl)amino)-1-oxopropan-2-yl)carbamate], the results for the half-inhibitory concentration (IC50) in data set [1] and in data set [2] were 414 nM and 1050 nM, respectively. For the same molecule, the solubility in “Solubility pH 7” was found to be 300 µg/mL (≈ 587 µM).
Taken in the same sequence, the figures for `COc1ccc(C[C@H](NC(=O)[C@H](C)NC(=O)CCO)C(=O)N[C@@H](Cc2ccccc2)C(=O)[C@@]2(C)CO2)cc1` [Compound C-2012, (S)-2-((S)-2-(3-hydroxypropanamido)propanamido)-3-(4-methoxyphenyl)-N—((S)-1-((R)-2-methyloxiran-2-yl)-1-oxo-3-phenylpropan-2-yl)propanamide] were 86.9 nM, 262 nM and 3830 µg/mL (≈ 7280 µM).
Taken in the same sequence, the figures for `COCCC(=O)N[C@@H](C)C(=O)N[C@@H](Cc1ccc(OC)cc1)C(=O)N[C@@H](CC1CCCC1)C(=O)[C@@]1(C)CO1` [Compound C-2019, (S)—N—((S)-3-cyclopentyl-1-((R)-2-methyloxiran-2-yl)-1-oxopropan-2-yl)-3-(4-methoxyphenyl)-2-((S)-2-(3-methoxypropanamido)propanamido)propanamide] were 332 nM, 579 nM and 316 µg/mL (≈ 594 µM).
For `CCOCC(=O)N[C@@H](C)C(=O)N[C@@H](Cc1ccc(OC)cc1)C(=O)N[C@@H](CC1CCCC1)C(=O)[C@@]1(C)CO1` [Compound C-2020, (S)—N—((S)-3-cyclopentyl-1-((R)-2-methyloxiran-2-yl)-1-oxopropan-2-yl)-2-((S)-2-(2-ethoxyacetamido)propanamido)-3-(4-methoxyphenyl)propanamide], in that order: 560 nM, 797 nM and 59.1 µg/mL (≈ 111 µM).
Take `COc1ccc(C[C@H](NC(=O)[C@@H](C)NC(=O)c2oncc2C)C(=O)N[C@@H](CC2CCCC2)C(=O)[C@@]2(C)CO2)cc1` [Compound C-2024, N—((R)-1-(((S)-1-(((S)-3-cyclopentyl-1-((R)-2-methyloxiran-2-yl)-1-oxopropan-2-yl)amino)-3-(4-methoxyphenyl)-1-oxopropan-2-yl)amino)-1-oxopropan-2-yl)-4-methylisoxazole-5-carboxamide]: the IC50 in data set [1] came to 2270 nM; in data set [2], 6030 nM. The molecule also returned a solubility in “Solubility pH 7” of 44.1 µg/mL (≈ 79.5 µM).
For `COc1ccc(C[C@H](NC(=O)[C@H](C)NC(=O)c2cnc(C)s2)C(=O)N[C@@H](CC2CCCC2)C(=O)[C@@]2(C)CO2)cc1` [Compound C-2025, N—((S)-1-(((S)-1-(((S)-3-cyclopentyl-1-((R)-2-methyloxiran-2-yl)-1-oxopropan-2-yl)amino)-3-(4-methoxyphenyl)-1-oxopropan-2-yl)amino)-1-oxopropan-2-yl)-2-methylthiazole-5-carboxamide], the results for the IC50 in data set [1] and in data set [2] were 569 nM and 289 nM, respectively. Besides, the solubility in “Solubility pH 7” was 144 µg/mL (≈ 253 µM).
For `COc1ccc(C[C@H](NC(=O)[C@@H](C)NC(=O)c2nc3ccccc3[nH]2)C(=O)N[C@@H](CC2CCCC2)C(=O)[C@@]2(C)CO2)cc1` [Compound C-2029, N—((R)-1-(((S)-1-(((S)-3-cyclopentyl-1-((R)-2-methyloxiran-2-yl)-1-oxopropan-2-yl)amino)-3-(4-methoxyphenyl)-1-oxopropan-2-yl)amino)-1-oxopropan-2-yl)-1H-benzo[d]imidazole-2-carboxamide], in that order: 2580 nM, 3400 nM and 1.7 µg/mL (≈ 2.88 µM).
Take `COc1ccc(C[C@H](NC(=O)[C@@H](C)NC(=O)C2=Cc3ccccc3C2)C(=O)N[C@@H](CC2CCCC2)C(=O)[C@@]2(C)CO2)cc1` [Compound C-2036, N—((R)-1-(((S)-1-(((S)-3-cyclopentyl-1-((R)-2-methyloxiran-2-yl)-1-oxopropan-2-yl)amino)-3-(4-methoxyphenyl)-1-oxopropan-2-yl)amino)-1-oxopropan-2-yl)-1H-indene-2-carboxamide]: the IC50 was 5140 nM and 2710 nM in data set [2]; 4860 nM at β5; 130 nM on LMP7. In addition, the concentration in solution in “Solubility pH 7” (solubility) came to 2.1 µg/mL (≈ 3.57 µM).
For `COc1ccc(C[C@H](NC(=O)CNC(=O)C2=C(C)c3ccccc3C2)C(=O)N[C@@H](CC2CCCC2)C(=O)[C@@]2(C)CO2)cc1` [Compound C-2039, N-(2-(((S)-1-(((S)-3-cyclopentyl-1-((R)-2-methyloxiran-2-yl)-1-oxopropan-2-yl)amino)-3-(4-methoxyphenyl)-1-oxopropan-2-yl)amino)-2-oxoethyl)-3-methyl-1H-indene-2-carboxamide], the results for the half-maximal inhibitory concentration (IC50) in data set [1] and in data set [2] were 2520 nM and 3950 nM, respectively. The molecule also returned a solubility in “Solubility pH 7” of 1.7 µg/mL (≈ 2.89 µM).
Taken in the same sequence, the figures for `COc1ccc(C[C@H](NC(=O)[C@@H](C)NC(=O)c2ccno2)C(=O)N[C@@H](CC2CCCC2)C(=O)[C@@]2(C)CO2)cc1` [Compound C-2041, N—((R)-1-(((S)-1-(((S)-3-cyclopentyl-1-((R)-2-methyloxiran-2-yl)-1-oxopropan-2-yl)amino)-3-(4-methoxyphenyl)-1-oxopropan-2-yl)amino)-1-oxopropan-2-yl)isoxazole-5-carboxamide] were 1400 nM, 9800 nM and 65.9 µg/mL (≈ 122 µM).
On to `COc1ccc(C[C@H](NC(=O)[C@H](CN2CCOCC2)NC(=O)c2cc(C)no2)C(=O)N[C@@H](CC2CCCC2)C(=O)[C@@]2(C)CO2)cc1` [Compound C-2044, N—((S)-1-(((S)-1-(((S)-3-cyclopentyl-1-((R)-2-methyloxiran-2-yl)-1-oxopropan-2-yl)amino)-3-(4-methoxyphenyl)-1-oxopropan-2-yl)amino)-3-morpholino-1-oxopropan-2-yl)-3-methylisoxazole-5-carboxamide], for which the IC50 in data set [1] came to 1600 nM; in data set [2], 286 nM. In addition, the solubility in the data set “Solubility pH 7” stood at 130 µg/mL (≈ 204 µM).
For `COc1ccc(C[C@H](NC(=O)[C@@H](NC(=O)OCc2ccccc2)C2(O)CC2)C(=O)N[C@@H](Cc2ccccc2)C(=O)[C@@]2(C)CO2)cc1` [Compound C-2046, Benzyl ((S)-1-(1-hydroxycyclopropyl)-2-(((S)-3-(4-methoxyphenyl)-1-(((S)-1-((R)-2-methyloxiran-2-yl)-1-oxo-3-phenylpropan-2-yl)amino)-1-oxopropan-2-yl)amino)-2-oxoethyl)carbamate], in that order: 5.2 nM, 7.9 nM and 10.7 µg/mL (≈ 17 µM).
Consider `COc1ccc(C[C@H](NC(=O)[C@@H](C)NC(=O)[C@@H]2CCc3[nH]ncc3C2)C(=O)N[C@@H](CC2CCCC2)C(=O)[C@@]2(C)CO2)cc1` [Compound C-2064, (R)—N—((R)-1-(((S)-1-(((S)-3-cyclopentyl-1-((R)-2-methyloxiran-2-yl)-1-oxopropan-2-yl)amino)-3-(4-methoxyphenyl)-1-oxopropan-2-yl)amino)-1-oxopropan-2-yl)-4,5,6,7-tetrahydro-1H-indazole-5-carboxamide], for which the IC50 against β5 is 6110 nM; against LMP7, 139 nM. Also, the solubility in the data set “Solubility pH 7” was 144 µg/mL (≈ 242 µM).
For `COc1ccc(C[C@H](NC(=O)[C@@H](C)NC(=O)[C@H]2CCc3[nH]ncc3C2)C(=O)N[C@@H](CC2CCCC2)C(=O)[C@@]2(C)CO2)cc1` [Compound C-2065, (S)—N—((R)-1-(((S)-1-(((S)-3-cyclopentyl-1-((R)-2-methyloxiran-2-yl)-1-oxopropan-2-yl)amino)-3-(4-methoxyphenyl)-1-oxopropan-2-yl)amino)-1-oxopropan-2-yl)-4,5,6,7-tetrahydro-1H-indazole-5-carboxamide], in that order: 6630 nM, 157 nM and 121 µg/mL (≈ 204 µM).
For `COc1ccc(C[C@H](NC(=O)[C@@H]2CC(=O)N2)C(=O)N[C@@H](Cc2ccccc2)C(=O)[C@@]2(C)CO2)cc1` [Compound C-3002, (S)—N—((S)-3-(4-methoxyphenyl)-1-(((S)-1-((R)-2-methyloxiran-2-yl)-1-oxo-3-phenylpropan-2-yl)amino)-1-oxopropan-2-yl)-4-oxoazetidine-2-carboxamide], in that order: 1930 nM, 934 nM and 1460 µg/mL (≈ 3050 µM).
Taken in the same sequence, the figures for `COc1ccc(C[C@H](NC(=O)[C@H]2CC(=O)N2)C(=O)N[C@@H](Cc2ccccc2)C(=O)[C@@]2(C)CO2)cc1` [Compound C-3003, (R)—N—((S)-3-(4-methoxyphenyl)-1-(((S)-1-((R)-2-methyloxiran-2-yl)-1-oxo-3-phenylpropan-2-yl)amino)-1-oxopropan-2-yl)-4-oxoazetidine-2-carboxamide] were 1220 nM, 513 nM and 1200 µg/mL (≈ 2500 µM).
